Columns and labels:
[1] = test system: SARS-CoV Frankfurt-1 strain; type: cell-based
[2] = test system: SARS-CoV Frankfurt-1 strain; type: cell-based; remark: listed apart in the source
[3] = test system: SARS-CoV Frankfurt-1 strain; conditions: cited from earlier work
Vero E6 cells = conditions: cited from earlier work
[4] = test system: SARS-CoV Frankfurt-1 strain; conditions: cited from earlier work; remark: listed apart in the source

Structure (SMILES) | anti-SARS-CoV activity (in words) [2] | Antiviral index (50% toxic dose divided by 50% inhibitory dose) [3] | CC50 (Vero E6 cells) [µM] | concentration required to decrease the virus yield to one-tenth of the control [4] | other results
OC[C@H]1O[C@@H](n2cnc3c(Cl)ncnc32)[C@H](O)[C@@H]1O [Compound 1] | – | – | – | – | concentration required to reduce the virus yield to one-hundredth of the control [1]: approximately 20 μM
OC[C@H]1O[C@@H](n2cnc3c(Cl)ncnc32)C[C@@H]1O [Compound 6] | weak antiviral activity | – | – | – | –
OC[C@@H]1C[C@@H](O)[C@H](n2cnc3c(Cl)ncnc32)O1 [Compound 7] | weak antiviral activity | – | – | – | –
OCC1CC(n2cnc3c(Cl)ncnc32)C1CO (stereo not shown) [Compound 10] | almost no activity | – | – | – | –
NC(=O)c1ncn([C@@H]2O[C@H](CO)[C@@H](O)[C@H]2O)c1O [Mizoribine] | – | >52 | > 700 | approximately 35 μM | –
NC(=O)c1ncn([C@@H]2O[C@H](CO)[C@@H](O)[C@H]2O)n1 [Ribavirin] | – | >10 | > 850 | ~200 µM | –
